Measurements reported in ChEMBL document CHEMBL1201862, “PubChem BioAssay data set” (2004).
The source made the active and inactive calls.

Columns and labels:
[1] = loss of viability in HepG2 cells – cell-based, CellTiter-Glo, cherry-picked, cytotoxicity control for Shn3 inhibitor project, dose response (AID 624134); assay type: functional
[2] = reduction of Shn3 3'UTR-driven luciferase in osteoblasts – cell-based, Clone20 osteoblasts, firefly luciferase, cherry-picked, dose response (AID 624132); assay type: functional;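 further: firefly luciferase luminescence from reporter carrying the Shn3 3'UTR in osteoblasts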
Vero = assay: cells; assay type: functional; conditions: Chlorocebus sabaeus
[3] = non-specific 3'UTR reporter inhibition in Clone20-Shn3RL – cell-based, Renilla luciferase, cherry-picked, counter-screen for Shn3 inhibitor project, dose response (AID 624133); assay type: functional
[4] = viability of uninfected HEp-2 cells – cell-based, HTS, cytotoxicity control for RSV inhibitor project, dose response (AID 2410); assay type: functional; conditions: human respiratory syncytial virus
[5] = viability of HCT116 lacking mutant beta-catenin – cell-based, human colon tumor, dose response (AID 1045); assay type: functional;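 further: HCT116 colon tumor cells with beta catenin knocked out; cells exposed to compound for 60 hours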
[6] = viability of PTEN-deleted HCT116 cells – cell-based, HCT116 PTEN knockout, dose response (AID 1047); assay type: functional;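 further: HCT116 colon tumor cells with PTEN knocked out; cells exposed to compound for 60 hours before readout; potency for loss of cell viability measured by luminescence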
[7] = P. falciparum Dd2 growth inhibitors, dose response, SYBR Green, cherry-picked samples (AID 1159567); assay type: functional, cell-based
[8] = biological target: T1, Polyadenylate-binding protein 1 (Homo sapiens, UniProt P11940); assay: MLLE domain peptide-binding blockers, IC50 – biochemical, fluorescence polarization, FITC-PAM2 peptide, dose response (AID 602259); assay type: functional; conditions: read-out: IC50_Mean
T1 sequence (P11940 whole entry, the tested form may be a part): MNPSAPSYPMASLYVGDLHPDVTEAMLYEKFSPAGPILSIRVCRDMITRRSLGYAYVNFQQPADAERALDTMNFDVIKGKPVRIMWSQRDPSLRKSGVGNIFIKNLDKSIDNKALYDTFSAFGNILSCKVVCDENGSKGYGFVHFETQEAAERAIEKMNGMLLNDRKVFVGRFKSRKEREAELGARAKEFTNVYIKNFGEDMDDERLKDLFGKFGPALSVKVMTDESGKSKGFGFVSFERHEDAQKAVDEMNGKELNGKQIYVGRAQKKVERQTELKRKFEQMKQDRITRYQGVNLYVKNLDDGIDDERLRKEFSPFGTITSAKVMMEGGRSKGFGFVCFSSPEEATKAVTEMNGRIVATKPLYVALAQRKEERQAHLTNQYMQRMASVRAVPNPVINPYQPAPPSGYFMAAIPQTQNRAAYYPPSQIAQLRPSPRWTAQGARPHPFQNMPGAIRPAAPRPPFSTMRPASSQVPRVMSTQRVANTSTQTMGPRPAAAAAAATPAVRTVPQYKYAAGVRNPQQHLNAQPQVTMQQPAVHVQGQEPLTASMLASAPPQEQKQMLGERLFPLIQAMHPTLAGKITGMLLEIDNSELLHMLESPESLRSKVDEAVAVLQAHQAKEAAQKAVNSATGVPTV

[9] = NIH3T3 cell viability loss – ATP luminescence, mouse fibroblasts, counter-screen, dose response (AID 2010); assay type: functional, cell-based;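 further: cells exposed to compound for about 90 hours before reading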
[10] = Trypanosoma cruzi growth suppression in host cells – NIH3T3 host cells, beta-gal luminescence, confirmation (AID 2044); assay type: functional, cell-based;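 further: intracellular parasites grown in NIH/3T3 mouse fibroblasts as host cells; luminescent beta-galactosidase reporter signal from transgenic T. cruzi replicating inside host cells; inhibitors lower the luminescence signal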
[11] = biological target: T1, Polyadenylate-binding protein 1; assay: MLLE binding blockers, Cy5 peptide tracer – biochemical, fluorescence polarization, Cy5-PAM2 peptide, secondary, miRNA deadenylation inhibitor project, dose response (AID 602260); assay type: functional; conditions: read-out: IC50_Mean
[12] = biological target: Induced myeloid leukemia cell differentiation protein Mcl-1 (Homo sapiens, UniProt Q07820); assay type: functional
Sequence of Induced myeloid leukemia cell differentiation protein Mcl-1 (Q07820 whole entry): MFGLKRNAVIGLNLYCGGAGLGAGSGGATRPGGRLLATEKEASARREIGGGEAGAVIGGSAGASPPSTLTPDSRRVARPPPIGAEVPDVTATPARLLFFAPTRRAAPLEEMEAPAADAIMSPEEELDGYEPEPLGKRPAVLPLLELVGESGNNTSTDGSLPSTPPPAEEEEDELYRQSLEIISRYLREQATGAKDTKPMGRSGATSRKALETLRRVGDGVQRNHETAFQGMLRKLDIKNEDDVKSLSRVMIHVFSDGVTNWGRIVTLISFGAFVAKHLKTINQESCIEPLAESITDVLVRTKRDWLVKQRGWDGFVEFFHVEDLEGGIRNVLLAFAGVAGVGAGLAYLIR

[13] = biological target: T2, Calpain-2 catalytic subunit (Sus scrofa, UniProt P43367); assay: m-calpain protease blockers, concentration series – biochemical, fluorogenic peptide substrate, dose response (AID 1420); assay type: functional
T2 sequence (P43367 whole entry): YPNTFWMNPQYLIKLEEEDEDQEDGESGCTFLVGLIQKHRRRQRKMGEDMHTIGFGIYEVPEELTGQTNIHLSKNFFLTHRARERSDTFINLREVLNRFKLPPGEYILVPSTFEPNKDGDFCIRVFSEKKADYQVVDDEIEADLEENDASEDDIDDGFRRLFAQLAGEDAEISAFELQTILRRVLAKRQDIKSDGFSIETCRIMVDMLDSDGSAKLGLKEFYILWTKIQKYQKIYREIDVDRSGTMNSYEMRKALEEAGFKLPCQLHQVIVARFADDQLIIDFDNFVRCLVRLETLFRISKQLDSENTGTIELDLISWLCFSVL

[14] = Luminescence Cell-Based Dose Retest to Confirm Inhibitors of Cancer Stem Cells. [Related pubchem assays (depositor defined):AID2717, AID2721]; assay type: functional; conditions: Homo sapiens
[15] = HEK-293T viability loss after treatment – luminescence, T-cell screen hits, cytotoxicity control for TCR NF-kB inhibitor project, dose response (AID 489026); assay type: functional, cell-based;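 further: cells exposed to compound about 14 hours before the viability readout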
Paired box protein Pax-8 = Paired box protein Pax-8 (Homo sapiens, UniProt Q06710); assay: PAX8 transcriptional activity inhibition in RMG-I – RMG-I cells, luciferase, cherry-pick, dose response (AID 687027); assay type: functional, cell-based;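 further: luciferase reporter driven by Pax8 target thyroperoxidase promoter measured by SteadyGlo luminescence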
Sequence of Paired box protein Pax-8 (Q06710 whole entry): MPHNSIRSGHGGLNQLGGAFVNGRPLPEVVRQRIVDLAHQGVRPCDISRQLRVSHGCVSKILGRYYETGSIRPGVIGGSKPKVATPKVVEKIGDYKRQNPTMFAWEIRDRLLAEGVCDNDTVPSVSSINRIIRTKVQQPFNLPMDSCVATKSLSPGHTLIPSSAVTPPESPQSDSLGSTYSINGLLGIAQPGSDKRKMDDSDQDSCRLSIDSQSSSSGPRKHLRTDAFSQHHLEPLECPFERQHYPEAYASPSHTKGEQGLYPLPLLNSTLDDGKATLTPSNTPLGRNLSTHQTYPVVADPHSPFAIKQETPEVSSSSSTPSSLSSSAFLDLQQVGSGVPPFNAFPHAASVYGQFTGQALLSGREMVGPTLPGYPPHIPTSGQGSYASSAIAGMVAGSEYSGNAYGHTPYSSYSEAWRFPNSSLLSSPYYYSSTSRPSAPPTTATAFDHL

[16] = DRD fibroblast viability loss – cell-based, non-viral oncogenic, luminescence, dose response (AID 1934); assay type: functional; conditions: Homo sapiens
BJ [17] = assay: BJ-TERT fibroblast viability loss – cell-based, RAS-independent, luminescence, dose response (AID 1933); assay type: functional; conditions: Homo sapiens
BJ [18] = assay: cells; assay type: functional, cell-based; conditions: Homo sapiens
BJ [19] = assay: BJ-TERT-LT-ST fibroblast viability loss – cell-based, RAS-independent, luminescence, dose response (AID 1935); assay type: functional; conditions: Homo sapiens;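 further: BJ fibroblasts immortalized with TERT plus LT and ST oncogenes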
INS1 = assay: INS-1E survival protection against cytokine death – cell-based, luminescence, retest, dose response (AID 449756); assay type: functional; conditions: Rattus norvegicus;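 further: cell death triggered by IL-1 beta plus TNF-alpha plus IFN-gamma mixture; protective hits raise ATP signal compared with cytokine alone wells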
cells [20] = assay type: functional, cell-based
cells [21] = assay type: functional, cell-based; remark: listed apart in the source
[22] = Luminescence Cell-Based Dose Response HTS to Identify Inhibitors of 5'UTR Stem-Loop Driven Prion Protein mRNA Translation in H4 Neuroglioblastoma Cells. [Related pubchem assays: 1827 (Project Summary), 1813 (Primary HTS)]; assay type: functional
[23] = alpha-synuclein stem-loop luciferase translation blockers – H4 neuroglioma cells, luminescence, confirmation (AID 1988); assay type: functional, cell-based
[24] = tested on: Streptococcus sp. 'group A'; assay: Streptococcus pyogenes SK(-)GAS viability under kanamycin – luminescence, BacTiterGlo, confirmation, counter-screen for streptokinase expression inhibitor project, dose response (AID 1900); assay type: functional, organism-based
Streptococcus = assay: GAS UMAA2166 growth inhibition – luminescence, BacTiterGlo, counter-screen for streptokinase expression inhibitor project, dose response (AID 1915); assay type: functional, organism-based;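 further: potency for reduction of bacterial viability or growth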
Streptokinase A = biological target: T3, Streptokinase A (Streptococcus pyogenes serotype M1, UniProt P10520); assay: viability-normalized secreted streptokinase activity reduction – plasminogen activation absorbance, OD405, dose response (AID 1914); assay type: functional, Streptococcus pyogenes M1 GAS;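 further: secreted streptokinase activity via plasminogen activation per viability signal from cell pellet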
T3 sequence (P10520 whole entry): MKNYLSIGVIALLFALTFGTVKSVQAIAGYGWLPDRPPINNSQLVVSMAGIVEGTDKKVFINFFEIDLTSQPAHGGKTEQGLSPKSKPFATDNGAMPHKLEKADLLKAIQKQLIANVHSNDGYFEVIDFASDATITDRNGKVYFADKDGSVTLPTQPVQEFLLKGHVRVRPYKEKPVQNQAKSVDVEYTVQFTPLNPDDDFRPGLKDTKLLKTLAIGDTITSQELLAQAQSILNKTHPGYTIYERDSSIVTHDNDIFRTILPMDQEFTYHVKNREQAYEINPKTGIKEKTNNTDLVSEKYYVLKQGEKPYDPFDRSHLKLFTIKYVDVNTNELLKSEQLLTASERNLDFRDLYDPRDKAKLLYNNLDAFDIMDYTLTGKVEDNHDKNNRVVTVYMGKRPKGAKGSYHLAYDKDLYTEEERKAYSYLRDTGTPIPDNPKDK

[25] = luciferase reporter signal suppression in cells – H4 neuroglioma cells, luminescence, dose response (AID 1990); assay type: functional, cell-based

Cn1c(/C=C/c2ccc(Cl)cc2Cl)c([N+](=O)[O-])c(=O)n(C)c1=O
AC50 [1]: 64.4 µM (active) | AC50 [2]: 6.87 µM (active) | CC50 (Vero): 20.5 µM (active) | AC50 [3]: 8.75 µM (active) | CC50 [4]: 37.5 µM (active)

COC(=O)c1ccc(/C=C/C(=O)c2ccc(OC)c(OC)c2)cc1
EC50 [5]: 7.25 µM (active) | EC50 [6]: 8.4 µM (active)

COc1ccc(-c2ccc([C@@H]3[C@H]4CNC[C@@H]3N4C(=O)Nc3ccc(C(F)(F)F)cc3)cc2)cc1
AC50 [7]: 15 µM (active)

Cc1ccc2c(c1)c1nnc(S)nc1n2CCc1ccccc1
IC50 [8]: > 66 µM (inactive) | EC50 [9]: > 60 µM (not active) | EC50 [10]: 2.1 µM (active) | IC50 [11]: > 66 µM (inactive)

Cc1cc(N(CCO)CCO)ccc1C(c1ccc(N(CCO)CCO)cc1C)c1ccccc1Cl
IC50 [12]: 2.71 µM (active)

COc1cc(-c2cc(C(=O)Nc3c(Cl)cc(Cl)cc3Cl)c3ccccc3n2)cc(OC)c1OC
EC50 [5]: 44.6 µM (active) | EC50 [6]: 26 µM (active)

C=CCC1(C#N)C(=S)N=C2CC(C)(C)CC(O)=C2C1c1ccc(Br)cc1 (stereo unspecified)
EC50 [5]: 14.9 µM (active) | EC50 [6]: 14.6 µM (active)

CCCCCCC1NC(C(=O)O)CS1 (stereo unspecified)
IC50 [8]: > 66 µM (inactive) | IC50 [11]: > 66 µM (inactive)

Cc1nc2[nH]c(=S)[nH]c(=O)c2nc1C
IC50 [8]: > 66 µM (inactive) | IC50 [11]: > 66 µM (inactive)

COc1ccc(C(=S)N2CCN(c3ccccc3Cl)CC2)cc1OC
IC50 [8]: > 66 µM (inactive) | IC50 [11]: > 66 µM (inactive)

CO[C@H]1CN(C)C(=O)c2cc(NC(=O)C3CC3)ccc2OC[C@@H](C)N(Cc2cc(F)ccc2F)C[C@H]1C
AC50 [7]: 6.09 µM (active)

Cn1cc([N+](=O)[O-])c(C(=O)Nc2cc(Oc3cccnc3)cc([N+](=O)[O-])c2)n1
EC50 [5]: 1.02 µM (active) | IC50 [13]: 15.3 µM (not active) | EC50 [6]: 1.24 µM (active)

O=C(N/N=C/c1cc(Br)c(Br)o1)c1cccnc1
IC50 [8]: 44.3 µM (inactive) | IC50 [11]: > 66 µM (inactive)

C[C@]12CC[C@H]3[C@@H](CC[C@]4(O)C[C@@H](O)CC[C@]34C=O)[C@@]1(O)CC[C@@H]2C1=CC(=O)OC1 [STROPHANTHIDIN]
AC50 [14]: 582 nM (active) | IC50 [15]: > 80 µM (inactive) | CC50 (Vero): 1.22 µM (active) | AC50 (Paired box protein Pax-8): 2.22 µM (active)

O=C(/C=C/c1ccc([N+](=O)[O-])cc1)c1cccnc1
EC50 [5]: 4.4 µM (active) | EC50 [6]: 5.8 µM (active)

CCOC(=O)c1c(C)[nH]c(C(=O)N/N=C/c2ccc(Br)cc2)c1C
EC50 [16]: 387 nM (active) | EC50 (BJ [17]): 327 nM (active) | EC50 (BJ [18]): 35.1 µM (inconclusive) | EC50 (BJ [19]): 733 nM (inconclusive) | IC50 [15]: > 80 µM (inactive)

Cc1nc(-n2ncc(C#N)c2N)c2c3c(sc2n1)CCC3
EC50 [5]: 32 µM (active) | EC50 [6]: 24.8 µM (active)

Cc1ccc(S(=O)(=O)NCc2ccncc2)cc1C
AC50 [1]: 2.43 µM (active) | AC50 (INS1): 3.06 µM (active) | IC50 [15]: > 80 µM (inactive) | AC50 [2]: 0.585 µM (active)

CCc1nc(SCC(=O)c2ccccc2)c2ccccc2n1
EC50 (cells [20]): > 350 µM (not active) | IC50 [8]: > 66 µM (inactive) | EC50 (cells [21]): > 350 µM (not active) | IC50 [11]: > 66 µM (inactive)

Cc1ccc2nc(N3CC(=O)Nc4ccccc43)nc(-c3ccccc3)c2c1
EC50 [5]: 10.4 µM (active) | EC50 [6]: 11.5 µM (active)

Cc1nnc(O)c2c(NC(=O)CSc3c(Cl)cccc3Cl)oc(C)c12
IC50 [8]: > 66 µM (inactive) | IC50 [11]: > 66 µM (inactive)

COc1ccc(-c2c/c(=N\c3nc(-c4ccccc4)c(C)s3)c3ccccc3o2)cc1O
EC50 [22]: 5.8 µM (active) | EC50 [16]: 1900 nM (active) | EC50 (BJ [17]): 1710 nM (active) | EC50 (BJ [18]): 3.22 µM (active) | EC50 (BJ [19]): 1820 nM (active) | CC50 (Vero): 3.22 µM (active) | EC50 [23]: 7.32 µM (active) | EC50 [24]: 4.5 µM (active) | EC50 (Streptococcus): > 150 µM (not active) | EC50 (Streptokinase A): 15.5 µM (active) | EC50 [25]: 5.76 µM (inconclusive)

N#C[C@H]1[C@H](c2ccc(C#CC3CCCCC3)cc2)[C@@H](CO)N1S(=O)(=O)c1ccccc1
AC50 [7]: 3.24 µM (active)

CCC(=O)N1CC2(C1)CN(Cc1ccc(Cl)cc1)[C@@H](CO)c1[nH]c3cc(OC)ccc3c12
AC50 [7]: 7.24 µM (active)

COc1cc(/C=C(/NC(C)=O)C(=O)O)cc(Cl)c1OCc1ccc(Br)cc1
IC50 [12]: 3.47 µM (not active)

O=c1c2c3nc4ccccc4nc3n(Cc3ccccc3)c2ncn1Cc1ccco1
IC50 [12]: 6.14 µM (not active)

CCOC(=O)N1CCN(C(=O)C2CCCN(Cc3nc(-c4ccc(Cl)cc4)oc3C)C2)CC1 (stereo unspecified)
IC50 [15]: > 80 µM (inactive)

CO[C@H]1CN(C)C(=O)c2cc(NC(=O)C3CC3)ccc2OC[C@H](C)N(Cc2cccc(F)c2)C[C@H]1C
AC50 [7]: 6.05 µM (active)

O=C(NC1CCCCC1)c1nc[nH]c1C(=O)Nc1ccc([N+](=O)[O-])cc1
EC50 [5]: 8.87 µM (active) | EC50 [6]: 8.84 µM (active)

CCCC#Cc1cnc2c(c1)C(=O)N([C@@H](C)CO)C[C@H](C)[C@H](CN(C)C(=O)Nc1cccc(F)c1)O2
AC50 [7]: 8.83 µM (active)

O=C(CCCN1C(=O)CCC1=O)Nc1ccccc1F
IC50 [8]: > 66 µM (inactive) | IC50 [11]: > 66 µM (inactive)
